Measured values taken from ChEMBL document CHEMBL1130434, “Simultaneous pharmacokinetic screening of a mixture of compounds in the dog using API LC/MS/MS analysis for increased throughput” (J Med Chem, 1997).

Assays:
[1] = Clearance of compound when administered intravenously as a mixture (five-in-one dose) to a single dog.; assay type: ADME, organism-based, Canis lupus familiaris; conditions: in vivo, iv
[2] = Steady-state volume of distribution of compound when administered intravenously as a mixture (five-in-one dose) to a single dog.; assay type: ADME, organism-based, Canis lupus familiaris; conditions: in vivo, iv, read-out: Vss
[3] = Steady-state volume of distribution of compound when administered intravenously as an individual dose to a single dog.; assay type: ADME, organism-based, Canis lupus familiaris; conditions: in vivo, iv, read-out: Vss
[4] = Elimination half-life of compound when administered intravenously as an individual dose to a single dog.; assay type: ADME, organism-based; conditions: in vivo, iv
[5] = Elimination half-life of compound when administered intravenously as a mixture (five-in-one dose) to a single dog.; assay type: ADME, organism-based; conditions: in vivo, iv
[6] = Clearance of compound when administered intravenously as an individual dose to a single dog.; assay type: ADME, organism-based, Canis lupus familiaris; conditions: in vivo, iv

Row | SMILES | clearance [1] | Vd [2] | Vd [3] | half-life [4] | half-life [5] | clearance [6]
1 | COc1ccc(CCN2CCC(c3nc(COCC(F)(F)F)c(-c4ccccc4)o3)CC2)cc1S(N)(=O)=O | 5.9 mL/min/kg | 0.473 L/kg | 0.382 L/kg | 1.4 h | 1.5 h | 5 mL/min/kg
2 | COc1ccc(CCN2CCC(c3nc(COCC(F)(F)F)c(-c4ccccc4)o3)CC2)cc1S(=O)(=O)NCCNC(C)=O | 18.7 mL/min/kg | 2.83 L/kg | 0.6 L/kg | 2.6 h | 2.9 h | 10.3 mL/min/kg
3 | CNC(=O)CN(C)S(=O)(=O)c1cc(CCN2CCC(c3nc(COCC(F)(F)F)c(-c4ccccc4)o3)CC2)ccc1OC | 17.3 mL/min/kg | 2.76 L/kg | 3.46 L/kg | 2.1 h | 2.4 h | 28.9 mL/min/kg
4 | COc1ccc(CCN2CCC(c3nc(COCC(F)(F)F)c(-c4ccc(F)cc4)o3)CC2)cc1S(N)(=O)=O | 0.86 mL/min/kg | 0.33 L/kg | 0.243 L/kg | 4.2 h | 4.9 h | 0.9 mL/min/kg
5 | CNC(=O)CN(C)S(=O)(=O)c1cc(CCN2CCC(c3nc(COCC(F)(F)F)c(-c4ccc(F)cc4)o3)CC2)ccc1OC | 11.2 mL/min/kg | 2.86 L/kg | 2.91 L/kg | 3.4 h | 3 h | 11.6 mL/min/kg
